# How the values were obtained:
# [1] = target: T1, ADORA1 (Homo sapiens, UniProt P30542); assay: NanoBRET screen HiBiT-ADORA1 in HEK293; format: binding; conditions: ADORA1
# T1 construct: purchased Promega (in-house HiBiT-GPCR construct library, NanoBRET)
# T1 sequence (P30542 1-326): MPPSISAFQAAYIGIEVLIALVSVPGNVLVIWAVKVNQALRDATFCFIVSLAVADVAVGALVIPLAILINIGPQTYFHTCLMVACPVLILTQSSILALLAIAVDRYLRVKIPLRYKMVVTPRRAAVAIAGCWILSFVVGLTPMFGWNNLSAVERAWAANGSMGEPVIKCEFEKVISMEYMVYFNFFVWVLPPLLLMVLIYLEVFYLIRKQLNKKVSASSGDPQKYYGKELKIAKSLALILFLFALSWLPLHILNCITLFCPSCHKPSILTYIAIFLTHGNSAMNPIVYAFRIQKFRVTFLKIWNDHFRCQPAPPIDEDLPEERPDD
# Procedure: (§1) Each tracer candidate was screened across the entire library of HiBiT-GPCR constructs using NanoBRET as the detection modality. As depicted in Figure 4A, the specificity of interactions was evaluated through decrease in BRET due to competitive displacement of a bound tracer by excess parental compound. Each tracer was analyzed for binding to each HiBiT-GPCR fusion in the absence and in the presence of competing parental compound. Briefly, HEK293 cells were transfected with HiBiT-GPCR constructs diluted into promoterless DNA to reduce expression and maximize translocation to the cell surface. Each tracer candidate was then screened at concentrations of 1 μM and 0.1 μM across cells expressing these fusions. Cells were treated for 1.5 h with tracer either alone or in the presence of 20 μM competing parental compound (i.e., control). BRET was measured upon addition of purified LgBiT and subsequent complementation with HiBiT genetically fused to a GPCR. The specificity of interactions was assessed through a decrease in BRET signal due to competitive displacement of the bound tracer. To further gauge the robustness of these interactions, the fold response over the control (i.e., BRETtracer/BRETcontrol) was calculated. We chose a 1.5-fold response, which translates to ≥7-fold signal over noise as the minimal threshold required to score an interaction as positive. […]. Below we highlight the screening results obtained for our exemplary fluorescent tracers based on Clozapine, Amitriptyline and AZD1283.
# (§2) HiBiT-GPCR DNA constructs were diluted in 10 mM Tris pH 8 to a final concentration of 0.01 μg/μL, arrayed in 96-well plates and stored at −20 °C. For transfection, HEK293 cells were suspended in Opti-MEM (without phenol red) supplemented with 2% fetal bovine serum (Seradigm) and 100 units/mL penicillin–streptomycin (Gibco) at a final concentration of 220,000 cells/mL and dispensed into white 96-well plates at 90 μL/well. Subsequent transfections and screens were carried using an Agilent Bravo Automated Liquid Handling Platform. First, the 96-well HiBiT DNA arrays were diluted 25-fold in Opti-MEM (without serum or phenol red) to a final concentration of 0.0004 μg/μL and 20 μL of the diluted DNAs were transferred into new 96-well plates. Next, promoterless carrier DNA (1 μg/μL) was diluted 25-fold (0.04 μg/μL) and then dispensed into the diluted arrays at 20 μL/well. Following brief mixing, Viafect transfection reagent (Promega) diluted 16-fold into Opti-MEM was dispensed into the plates at 40 μL/well. After mixing by pipetting, plates were incubated for 10 min on the pipetting station deck. The DNA-transfection reagent complexes were then added to plates containing cells. To facilitate the screen, 10 μL of DNA-transfection reagent complexes were added in duplicates to the top 4 and bottom 4 rows, resulting in two identical 48-well arrays per plate. Plates with transfected cells were incubated for 18–20 h at 37 °C/5% CO2. A screen of each tracer across the entire library using two different concentrations requires duplicate plates of transfected cells. Depending on the number of tracers being screened, transfections can be scaled up using the same ratios. The next day, for each tracer, four 20× screening solutions in tracer dilution buffer (Promega) were prepared: two duplicates at final concentration of 20 μM and two duplicates at a final concentration of 2 μM. A competing unmodified compound was added to one of each duplicate at a final concentration of 400 μM. The four resulting solutions were diluted 4-fold in Opti-MEM without serum or phenol red to generate 5× solutions (5 µM and 0.5 µM tracer +/− 100 μM competing compound). To screen the library, a BioTek MultiFlo FX liquid dispenser was used to dispense 22.5 µL of tracer solution to the top 4 rows and 22.5 µL tracer + competing compound solution to the 4 bottom rows. Plates were briefly mixed on an orbital shaker and incubated for 1.5 h at room temperature. […]
# [2] = target: T2, AGTR1 (Homo sapiens, UniProt P30556); assay: NanoBRET screen HiBiT-AGTR1 in HEK293; format: binding; conditions: AGTR1
# T2 construct: purchased Promega (in-house HiBiT-GPCR construct library, NanoBRET)
# T2 sequence (P30556 1-359): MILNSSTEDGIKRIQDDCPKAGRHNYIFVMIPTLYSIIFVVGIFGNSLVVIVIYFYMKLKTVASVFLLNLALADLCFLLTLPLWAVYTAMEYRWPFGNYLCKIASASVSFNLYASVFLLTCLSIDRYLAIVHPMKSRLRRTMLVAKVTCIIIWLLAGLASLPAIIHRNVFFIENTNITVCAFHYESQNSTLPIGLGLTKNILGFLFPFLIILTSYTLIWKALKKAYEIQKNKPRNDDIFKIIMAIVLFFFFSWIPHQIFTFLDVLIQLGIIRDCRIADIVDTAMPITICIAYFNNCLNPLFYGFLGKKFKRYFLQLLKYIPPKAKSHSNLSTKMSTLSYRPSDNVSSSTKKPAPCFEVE
# Procedure: as §1, §2
SMILES,NanoBRET Fold Response ([1]; tracer 0.1μM),NanoBRET Fold Response ([1]; tracer 1μM),NanoBRET Fold Response ([2]; tracer 0.1μM),NanoBRET Fold Response ([2]; tracer 1μM),further results
CN1CCN(C2=Nc3cc(Cl)ccc3N(CC(=O)NCCOCCOCCOCCOCCNC(=O)CCc3ccc4n3[B-](F)(F)[N+]3=C(c5ccc[nH]5)C=CC3=C4)c3ccccc32)CC1 [Clozapine-c-2-NB590],,,,,NanoBRET Fold Response ([1]; 0.1μM tracer): 1.00; NanoBRET Fold Response ([1]; 1μM tracer): 0.87; NanoBRET Fold Response ([2]; 0.1μM tracer): 0.98; NanoBRET Fold Response ([2]; 1μM tracer): 0.93
O=C(CCOCCOCCOCCOCCNC(=O)CCc1ccc2n1[B-](F)(F)[N+]1=C(c3ccc[nH]3)C=CC1=C2)NCCCN1CCN(C2=Nc3ccccc3Oc3ccc(Cl)cc32)CC1 [Loxapine-a-2-NB590],1.13,1.04,0.96,1.08,
COc1ccccc1N1CCN(CCCCN2C(=O)c3ccc(CNC(=O)CCOCCOCCOCCOCCNC(=O)CCc4ccc5n4[B-](F)(F)[N+]4=C(c6ccc[nH]6)C=CC4=C5)cc3C2=O)CC1 [NAN-190-2-NB590],1.10,0.92,1.04,1.11,
COc1ccccc1N1CCN(CCCCN2C(=O)c3ccc(CNC(=O)CCOCCNC(=O)c4ccc(CNC(=O)CCc5ccc6n5[B-](F)(F)[N+]5=C(c7ccc[nH]7)C=CC5=C6)cc4)cc3C2=O)CC1 [NAN-190-3-NB590],1.07,0.89,0.92,1.04,
O=C(CCc1ccc2n1[B-](F)(F)[N+]1=C(c3ccc[nH]3)C=CC1=C2)NCc1ccc(C(=O)NCCOCCC(=O)N[C@@H]2CC[C@@]3(O)[C@H]4Cc5ccc(O)c6c5[C@@]3(CCN4CC3CC3)[C@H]2O6)cc1 [Naltrexone-3-NB590],0.84,1.23,1.07,0.93,
Cc1cc2c(s1)Nc1ccccc1N=C2N1CCN(CCCNC(=O)CCOCCOCCOCCOCCNC(=O)CCc2ccc3n2[B-](F)(F)[N+]2=C(c4ccc[nH]4)C=CC2=C3)CC1 [Olanzapine-a-2-NB590],1.09,1.22,0.94,0.95,
O=C(CCc1ccc2n1[B-](F)(F)[N+]1=C(c3ccc[nH]3)C=CC1=C2)NCc1ccc(C(=O)NCCOCCOCCNCC(O)COc2cccc3ccccc23)cc1 (stereo not drawn) [Propranolol-3-NB590],,,,,NanoBRET Fold Response ([1]; 0.1μM): 0.98; NanoBRET Fold Response ([1]; 1μM): 0.98; NanoBRET Fold Response ([2]; 0.1μM): 1.04; NanoBRET Fold Response ([2]; 1μM): 1.07
O=C(CCc1ccc2n1[B-](F)(F)[N+]1=C(c3ccc[nH]3)C=CC1=C2)NCCOCCOCCNC(=O)OCCOCCN1CCN(C2=Nc3ccccc3Sc3ccccc32)CC1 [Quetiapine-a-2-NB590],1.30,1.07,1.00,0.92,
Cc1nc2n(c(=O)c1CCN1CCC(c3noc4cc(F)ccc34)CC1)CCCC2OC(=O)NCCOCCOCCOCCOCCNC(=O)CCc1ccc2n1[B-](F)(F)[N+]1=C(c3ccc[nH]3)C=CC1=C2 (stereo not drawn) [Risperidone-2-NB590],1.04,1.05,0.99,0.98,
